Test results: paper PMC12040169 (PLOS Biology, 2025)

Assay: in vitro
Settings: human, hela cells, % viability

| SMILES | viability at 28.5 h, 10 µM [%] |
| --- | --- |
| CN1CCN(C2Cc3ccccc3Sc3c(O)cccc32)CC1 (centres unmarked) [CBK026200G] | 98 |
| CNCc1ccccc1Sc1cccc(OC)c1 [CBK026207C] | 103 |
| CCN(CC)C(=O)CSc1nnc[nH]1 [CBK026212] | 93.3 |
| c1ccc(CSc2nnc(-c3ccco3)o2)cc1 [CBK026283] | 106 |
| Nc1nnc(CCS(=O)(=O)c2ccc(Br)cc2)s1 [CBK026286] | 109 |
| C/C(=N\NC(=O)CSCc1ccccc1Br)c1cccc([N+](=O)[O-])c1 [CBK026344] | 95.9 |
| Brc1ccc(NCc2ccccn2)cc1 [CBK026347] | 104 |
| Cc1ccsc1CN1CCCCC1CO (centres unmarked) [CBK026348] | 107 |
| Nc1nnc(SCc2ccc(Br)cc2)s1 [CBK026356] | 109 |
| Brc1ccc(CSc2nc[nH]n2)cc1 [CBK026361] | 85.3 |
| COc1ccc(OCCCOc2ccccc2C(C)C)cc1 [CBK026366] | 90.8 |
| C(=N\N1CCOCC1)/c1ccc2c(c1)OCO2 [CBK026446] | 108 |
| CC(=O)Nc1cc(I)cc(C(=O)O)c1 [CBK026452G] | 104 |
| CC(=O)N1c2ccccc2C(C)(c2ccc(Br)cc2)CC1(C)C (centres unmarked) [CBK026461] | 95.8 |
| N#CC1CCCc2c1[nH]c1ccc(Br)cc21 (centres unmarked) [CBK026475] | 64.7 |
| O=C(O)C1Nc2ccc(Br)cc2C2C=CCC12 (centres unmarked) [CBK026482] | 92.1 |
| Cc1cn(S(=O)(=O)c2ccc(Br)cc2)cn1 [CBK026488] | 97.3 |
| Fc1ccc(SCCc2ccccn2)cc1 [CBK026491G] | 82.9 |
| Cc1cn(S(=O)(=O)c2ccc(Cl)cc2)cn1 [CBK026492] | 113 |
| Cc1cc(C)n(-c2ccccc2O)n1 [CBK026493] | 102 |
| CSc1nnc(-c2ccc(Br)cc2)o1 [CBK026502] | 91.9 |
| CC(C)NC(=O)c1ccccc1Br [CBK026505] | 86.2 |
| Nc1nc(N)n(-c2ccccc2)n1 [CBK026515] | 104 |

| SMILES | viability at 28.5 h, 10 µM [%] |
| --- | --- |
| COc1ccc2nc(C(=O)O)sc2c1 [CBK026523N] | 88.4 |
| O=c1[nH]c2cc(Cl)c(Br)nc2[nH]1 [CBK026531] | 76.9 |
| O=c1[nH]cnc2ccc(Br)cc12 [CBK026537] | 93.7 |
| CC(C)c1ccc(SCCc2ccccn2)cc1 [CBK026575C] | 88.8 |
| CCCCN(/C=N/S(=O)(=O)c1ccccc1)CCCC [CBK026576] | 92.2 |
| CCN(CC)CCN(C)Cc1ccccc1Br [CBK026593] | 92.8 |
| CN(C)CCP(=O)(c1ccccc1)c1ccccc1 [CBK026596] | 109 |
| N#CCCNCC1COc2ccccc2O1 (centres unmarked) [CBK026615] | 97.7 |
| Cn1c(=O)n(CC(=O)O)c(=O)c2c1nc(Br)n2Cc1ccccc1 [CBK026617] | 94.8 |
| O=C(O)c1ccc(-c2c(Cl)cc([N+](=O)[O-])cc2Cl)o1 [CBK026623] | 102 |
| CCOC(=O)c1ccc(-c2[nH]cnc2-c2c(C)cc(OC)cc2O)o1 [CBK026647] | 113 |
| O=S(=O)(Nc1nnc(C(F)(F)F)s1)c1ccc(F)cc1 [CBK026663] | 91.4 |
| COC(=O)c1ccsc1NS(=O)(=O)c1ccccc1 [CBK026667] | 88.7 |
| Cc1ccc(S(=O)(=O)Nc2nnc(SCC(=O)Nc3ccc4c(c3)OCO4)s2)cc1 [CBK026675] | 100 |
| COC(=O)c1scc(NS(=O)(=O)c2ccc(Cl)cc2Cl)c1C(=O)OC [CBK026681] | 89.4 |
| COC(=O)c1c(NC(=O)c2ccccc2)csc1C [CBK026684] | 90.3 |
| Nc1nonc1-c1noc(-c2cccc(Cl)c2)n1 [CBK026691] | 90.2 |
| CCC#CC(=O)Nc1cncc(OC2CCNCC2)n1 [CBK026731T] | 93 |
| CSc1nc(NC(=O)C2CCCO2)cc(N2CCNCC2)n1 (centres unmarked) [CBK026740T] | 90.5 |
| CN1CCN(c2n[nH]c(N)n2)CC1 [CBK026743] | 90.5 |
| CCOC(=O)c1sc(Cl)nc1C(F)(F)F [CBK026746] | 103 |
| O=C(NCCN1CCOCC1)C1CC2CCC1C2 (centres unmarked) [CBK026764] | 115 |
| CCN(CC(O)COc1cc(C)c(Cl)c(C)c1)S(=O)(=O)O (centres unmarked) [CBK026767N] | 106 |

| SMILES | viability at 28.5 h, 10 µM [%] |
| --- | --- |
| COC(=O)n1c(=O)oc2ccc(Cl)cc21 [CBK026774] | 101 |
| CC(NC(=O)N(Cc1c[nH]c(-c2ccccc2)n1)CC(C)(C)CN)c1cccc2ccccc12 (centres unmarked) [CBK026801C] | 96.3 |
| CC(C)(CN)CN(Cc1ccccc1C(F)(F)F)C(=O)Nc1ccc(Cl)cc1Cl [CBK026832C] | 93.5 |
| O=C(O)c1cnc(Cl)c(Br)c1 [CBK026874] | 83.7 |
| O=C1CSC(Nc2nc(-c3ccccc3)cs2)=N1 [CBK026880] | 104 |
| CC(C)(C)C1CCC(OC(=O)CCC(=O)O)CC1 (centres unmarked) [CBK026882] | 105 |
| O=S(=O)(CCSc1nc2ccccc2s1)c1nc2ccccc2s1 [CBK026908] | 92.4 |
| Brc1ccc(-c2nc(CSc3nnnn3C3CCCCC3)no2)cc1 [CBK026913] | 110 |
| CC1CCc2nc(NS(=O)(=O)c3ccccc3)sc2C1 (centres unmarked) [CBK026915] | 110 |
| COC(=O)Nc1nc2cc(F)c(Cl)cc2[nH]1 [CBK026927] | 102 |
| CC(Oc1ccccc1Br)c1nc(-c2nonc2N)no1 (centres unmarked) [CBK026982] | 86.2 |
| CCOC(=O)C1CCN(Cc2cccs2)CC1 [CBK026999] | 86.3 |
| CN(C)CC(O)CN1C(=O)NC(C)(C)C1=O (centres unmarked) [CBK027078] | 114 |
| O=c1[nH][nH]c2nc(O)cc(C(F)(F)F)c12 [CBK027081] | 109 |
| OC1CSc2nc(-c3cnccn3)nn2C1 (centres unmarked) [CBK027096] | 97.8 |
| Nc1nc(N)c2nc(C3OCCO3)cnc2n1 [CBK027115] | 114 |
| CNC(C)Cc1ccccc1Sc1ccccc1 (centres unmarked) [CBK027167G] | 98 |
| CN1C(c2ccccc2)=NO[C@]1(C)c1ccccc1 [CBK027170] | 90 |
| Brc1cnn(-c2ccccc2)c1 [CBK027172] | 87.6 |
| CCOC(=O)C1=C(C)N(CCO)C(=O)NC1c1ccccc1Br (centres unmarked) [CBK027192] | 104 |
| CCOC(NC(=O)Nc1ccc(Br)cc1)(C(F)(F)F)C(F)(F)F [CBK027208] | 91.2 |
| Cc1n[nH]c(C)c1CCCCCOc1ccccc1 [CBK027211C] | 84.3 |
| CC1(C(=O)O)CCCC2(C)c3cc(O)ccc3CCC12 (centres unmarked) [CBK027214] | 97.4 |

| SMILES | viability at 28.5 h, 10 µM [%] |
| --- | --- |
| Cc1ccc(S(=O)(=O)Nn2cnnc2)cc1 [CBK027263] | 108 |
| CSc1nsc(NC(=O)Nc2ccccc2)n1 [CBK027286] | 97.9 |
| c1csc(CN2CCNCC2)c1 [CBK027324] | 105 |
| O=C(Nc1cccc(C(F)(F)F)c1)c1nc[nH]n1 [CBK027341] | 89.4 |
| CCN(CC)c1nc2n(c(=O)n1)CCN2CC [CBK027342] | 94.9 |
| CC(C)=NNC(=O)Nc1nonc1N [CBK027368] | 99.2 |
| CCOc1nc(NCCC2=CCCCC2)nc(OCC)n1 [CBK027387] | 86.9 |
| Nc1nc(-c2ccccc2I)n[nH]1 [CBK027413] | 93.4 |
| Cc1c(NC(=O)Nc2ccccc2)sc(=S)n1C [CBK027434] | 90.6 |
| CCOc1cc(C(=S)N2CCOCC2)ccc1OCc1ccccc1 [CBK027466] | 99.1 |
| O=C(CSc1nnc(COc2ccc(Br)cc2)o1)OC1CCCCC1 [CBK027482] | 88.8 |
| Cc1c(NC(=O)Nc2ccc(Cl)cc2)sc(=S)n1C [CBK027495] | 93.4 |
| CCN(CC)C(=O)N1CCN(CCC#N)CC1 [CBK027538] | 94.9 |
| Clc1ccc(-c2c[nH]cn2)cc1 [CBK027542] | 111 |
| CN(CCOC(=O)c1cccnc1)C(C)(C)C [CBK027543C] | 88.8 |
| Cc1cc2nc(SCCO)[nH]c2cc1C [CBK027546] | 94.1 |
| Oc1ccccc1C(=S)N1CCCCC1 [CBK027552] | 92.8 |
| NC(=O)c1c[nH]c2ccccc12 [CBK027556] | 80.7 |
| CC(C)(C)c1ccc(OCC(=O)Nn2cnnc2)cc1 [CBK027576] | 90.3 |
| CC(C)OC(=O)c1nnn(-c2nonc2N)c1CN1CCCCCC1 [CBK027601] | 94 |
| COc1ccc(Nc2nc(Cl)nc(NCCN3CCOCC3)n2)cc1 [CBK027610] | 104 |
| Brc1ccc(CN2CCN(Cc3c[nH]c4ccccc34)CC2)cc1 [CBK027622] | 85.4 |

Same assay, conditions: human, hela cells, % viability, bulk resorufin, single well

| SMILES | viability at 28.5 h, 10 µM [%] |
| --- | --- |
| CNCCc1csc2ccccc12 [CBK027127C] | 118 |
